Laboratory results reported in US9868748B2, “Thiazolopyrrolidine inhibitors of ROR- γ” (Vitae Pharmaceuticals, Inc., priority 2013, dated 2018).
Where two headings read alike, the source gives them in different places.

How the values were obtained:
[1] = target: recombinant RORγ Ligand Binding Domain (LBD) protein (Homo sapiens (Human), UniProt P51449); assay: Radio-Ligand RORγ Binding Assay (Assay 1); conditions: competition with 25-hydroxy [26,27-3H]-cholesterol, SPA, read-out: RORγ Binding Ki Range*
In short: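 Recombinant human RORγ ligand binding domain (6×His-GST fusion, 24 nM stock) competed with tritiated 25-hydroxycholesterol (8.6 nM stock) in HEPES buffer pH 7.4 with detergents and DTT; poly-Lys YSi SPA beads, room temperature, tritium SPA signal. Four-parameter IC50 from semi-log dilutions, normalised to DMSO and 10 μM T0901317, then Ki via KD equation.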

[2] = target: full-length RORγt in Jurkat cells (Homo sapiens (Human), UniProt P51449); assay: RORγt 5xRORE Assay in Jurkat Cells (Assay 2); format: cell-based; conditions: Nanoluc luciferase reporter, 16-18 hrs
In short: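 Inverse agonist activity was read as NanoGlo luminescence from conditioned medium after 16–18 h compound exposure (37 °C, 0.1% DMSO final). The cells were Jurkat, transiently transfected with RORγt and a secNluc reporter carrying five RORE repeats, seeded 80,000 per well in delipidated-serum RPMI.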

[3] = Table 8, read-out: RORγt5X IC50 Range*
[4] = Table 9, read-out: RORγt5X IC50 Range*

Sequence of full-length RORγt in Jurkat cells (P51449 other isoform, or with tags, fused parts or gaps): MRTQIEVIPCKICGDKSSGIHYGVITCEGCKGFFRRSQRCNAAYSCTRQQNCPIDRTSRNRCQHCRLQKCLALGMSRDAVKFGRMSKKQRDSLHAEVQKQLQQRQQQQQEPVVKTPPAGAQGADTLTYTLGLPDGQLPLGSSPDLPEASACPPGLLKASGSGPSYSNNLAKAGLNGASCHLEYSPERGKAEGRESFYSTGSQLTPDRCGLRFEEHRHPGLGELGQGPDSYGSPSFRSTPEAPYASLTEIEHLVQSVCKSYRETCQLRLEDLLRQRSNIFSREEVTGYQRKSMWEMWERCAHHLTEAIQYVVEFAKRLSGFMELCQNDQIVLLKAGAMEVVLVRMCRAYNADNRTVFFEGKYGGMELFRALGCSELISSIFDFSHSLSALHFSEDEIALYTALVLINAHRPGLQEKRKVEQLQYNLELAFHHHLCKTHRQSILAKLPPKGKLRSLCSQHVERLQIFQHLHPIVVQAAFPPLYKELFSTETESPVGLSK
Sequence of recombinant RORγ Ligand Binding Domain (LBD) protein (P51449 269-508): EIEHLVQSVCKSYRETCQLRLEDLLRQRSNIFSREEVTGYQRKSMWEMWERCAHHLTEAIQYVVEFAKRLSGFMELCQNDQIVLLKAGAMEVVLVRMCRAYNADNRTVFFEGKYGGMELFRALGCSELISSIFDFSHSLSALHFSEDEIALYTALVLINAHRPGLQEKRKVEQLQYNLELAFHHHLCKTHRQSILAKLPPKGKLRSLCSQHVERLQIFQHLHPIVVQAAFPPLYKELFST

| SMILES | Ki ([1]; Table 8) | IC50 [2, 3] | Ki ([1]; Table 9) | IC50 [2, 4] |
| --- | --- | --- | --- | --- |
| CC(C)[C@H]1c2nc(NC(=O)Cc3ccc(S(C)(=O)=O)cc3)sc2CN1Cc1ccc(C(F)(F)F)cc1 [I-B19] | < 100 nM | < 100 nM | – | – |
| CCS(=O)(=O)c1ccc(CC(=O)Nc2nc3c(s2)CN(c2ncc(Cl)c(C)n2)[C@H]3C(C)C)cc1 | – | – | < 100 nM | > 1000 nM |
| CC(C)c1ccc(CN2Cc3sc(NC(=O)Cc4ccc(S(C)(=O)=O)cc4)nc3[C@H]2C(C)C)cc1 | – | – | < 100 nM | > 1000 nM |
| CCS(=O)(=O)c1ccc(CC(=O)Nc2nc3c(s2)CN(C[C@H]2CC[C@@H](C(F)(F)F)O2)[C@H]3C(C)C)nc1 (single isomer, unassigned) | – | – | < 100 nM | > 1000 nM |
| CCS(=O)(=O)c1ccc(CC(=O)Nc2nc3c(s2)CN(Cc2ncc(Cl)cc2F)[C@H]3C(C)C)cc1 [I-A10] | < 100 nM | < 100 nM | – | – |
| CCS(=O)(=O)c1ccc(CC(=O)Nc2nc3c(s2)CN(C[C@@H]2CN(C(=O)OC(C)(C)C)CCO2)[C@H]3C(C)C)cc1 [I-A43] | < 100 nM | < 100 nM | – | – |

More lines, now with the values ahead:

| Ki ([1]; Table 8) | IC50 [2, 3] | Ki ([1]; Table 9) | IC50 [2, 4] | SMILES |
| --- | --- | --- | --- | --- |
| < 100 nM | 100 to 1000 nM | – | – | CC(C)[C@H]1c2nc(NC(=O)Cc3ccc(C#N)cc3)sc2CN1Cc1ccc(Cl)cc1 [I-E1, (S)—N-(5-(4-chlorobenzyl)-4-isopropyl-5,6-dihydro-4H-pyrrolo[3,4-d]thiazol-2-yl)-2-(4-cyanophenyl)acetamide] |
| < 100 nM | 100 to 1000 nM | – | – | CC(C)[C@H]1c2nc(C(=O)NCc3ccc(S(C)(=O)=O)cc3)sc2CN1Cc1ccc(Cl)cn1 [I-K1, (S)-5-((5-chloropyridin-2-yl)methyl)-4-isopropyl-N-(4-(methylsulfonyl)benzyl)-5,6-dihydro-4H-pyrrolo[3,4-d]thiazole-2-carboxamide] |
| < 100 nM | > 1000 nM | – | – | CC(C)[C@H]1c2nc(NS(=O)(=O)c3ccc(CC(=O)O)cc3)sc2CN1Cc1ccc(Cl)cc1 [I-D1, (S)-2-(4-(N-(5-(4-chlorobenzyl)-4-isopropyl-5,6-dihydro-4H-pyrrolo[3,4-d]thiazol-2-yl)sulfamoyl)phenyl)acetic acid] |
